Like-named read-outs stand apart in the source and are kept apart here.
Tests used:
Burkholderia cepacia [1] = format: cell-based
Burkholderia stabilis = format: cell-based
Burkholderia pyrrocinia = format: cell-based
[2] = tested on: Burkholderia pseudomallei; format: cell-based
Burkholderia gladioli = format: cell-based
Burkholderia cenocepacia = format: cell-based
Burkholderia multivorans = format: cell-based
[3] = tested on: bacteria of the Burkholderia genus; format: cell-based; conditions: all species of bacteria of the Burkholderia genus
[4] = tested on: Burkholderia vietnamiensis; format: cell-based
Burkholderia anthina = format: cell-based
Burkholderia dolosa = format: cell-based
Burkholderia cepacia [5] = conditions: 0.02% solution
Burkholderia mallei = format: cell-based
[6] = white crystalline powder; cited from earlier work
Burkholderia ambifaria = format: cell-based
Pseudomonas aeruginosa = conditions: all three groups of patients; day 10 of therapy

CC1CCC(C(C)C)C(OC(=O)C[N+](C)(C)CCCCCCCCCC[N+](C)(C)CC(=O)OC2CC(C)CCC2C(C)C)C1 (stereo not drawn) [decamethoxine, 1,10-decamethylene-bis(N,N-dimethyl-menthoxycarbonylmethyl)ammonium dichloride]
activity (Burkholderia cepacia [1]; Concentration 0,2%): +++
activity (Burkholderia cepacia [1]; Concentration 0.02%): +
activity (Burkholderia cepacia [1]; Concentration 0.05%): ++
activity (Burkholderia cepacia [1]; Concentration 0.1%): +++
activity (Burkholderia stabilis; Concentration 0,2%): +++
activity (Burkholderia stabilis; Concentration 0.02%): +
activity (Burkholderia stabilis; Concentration 0.05%): ++
activity (Burkholderia stabilis; Concentration 0.1%): +++
activity (Burkholderia pyrrocinia; Concentration 0,2%): +++
activity (Burkholderia pyrrocinia; Concentration 0.02%): +
activity (Burkholderia pyrrocinia; Concentration 0.05%): ++
activity (Burkholderia pyrrocinia; Concentration 0.1%): +++
activity ([2]; Concentration 0,2%): +++
activity ([2]; Concentration 0.02%): +
activity ([2]; Concentration 0.05%): ++
activity ([2]; Concentration 0.1%): +++
activity (Burkholderia gladioli; Concentration 0,2%): +++
activity (Burkholderia gladioli; Concentration 0.02%): +
activity (Burkholderia gladioli; Concentration 0.05%): ++
activity (Burkholderia gladioli; Concentration 0.1%): +++
activity (Burkholderia cenocepacia; Concentration 0,2%): +++
activity (Burkholderia cenocepacia; Concentration 0.02%): +
activity (Burkholderia cenocepacia; Concentration 0.05%): ++
activity (Burkholderia cenocepacia; Concentration 0.1%): +++
activity (Burkholderia multivorans; Concentration 0,2%): +++
activity (Burkholderia multivorans; Concentration 0.02%): +
activity (Burkholderia multivorans; Concentration 0.05%): ++
activity (Burkholderia multivorans; Concentration 0.1%): +++
bactericidal activity [3]: exhibits bactericidal activity
activity ([4]; Concentration 0,2%): +++
activity ([4]; Concentration 0.02%): +
activity ([4]; Concentration 0.05%): ++
activity ([4]; Concentration 0.1%): +++
activity (Burkholderia anthina; Concentration 0,2%): +++
activity (Burkholderia anthina; Concentration 0.02%): +
activity (Burkholderia anthina; Concentration 0.05%): ++
activity (Burkholderia anthina; Concentration 0.1%): +++
activity (Burkholderia dolosa; Concentration 0,2%): +++
activity (Burkholderia dolosa; Concentration 0.02%): +
activity (Burkholderia dolosa; Concentration 0.05%): ++
activity (Burkholderia dolosa; Concentration 0.1%): +++
Mean therapy time (Burkholderia cepacia [5]; ultrasonic inhalations): 7 days
negative side effects making withdrawal necessary (Burkholderia cepacia [5]; ultrasonic inhalations): No patients had negative side effects
patients with positive effect after decamethoxine therapy (Burkholderia cepacia [5]; ultrasonic inhalations): 41%
patients with body temperature normalized (Burkholderia cepacia [5]; ultrasonic inhalations 5-20 ml 1-2 times daily, days 3-5): 75%
tolerance to the therapy (Burkholderia cepacia [5]; ultrasonic inhalations, all patients): Good tolerance
patients with persistent cough (Burkholderia cepacia [5]; ultrasonic inhalations, days 3-5, character changed from "strong" to "moderate" or "weak"): 75%
patients in whom dyspnea persisted (Burkholderia cepacia [5]; ultrasonic inhalations, days 3-5, characterized as "insignificant"): 30%
patients complaining of moderate cough (Burkholderia cepacia [5]; ultrasonic inhalations, days 7-10): 14%
cases in which fine moist rales were heard (Burkholderia cepacia [5]; ultrasonic inhalations, physical examination): 43%
activity (Burkholderia mallei; Concentration 0,2%): +++
activity (Burkholderia mallei; Concentration 0.02%): +
activity (Burkholderia mallei; Concentration 0.05%): ++
activity (Burkholderia mallei; Concentration 0.1%): +++
solubility in water [6]: readily soluble in water
activity (Burkholderia ambifaria; Concentration 0,2%): +++
activity (Burkholderia ambifaria; Concentration 0.02%): +
activity (Burkholderia ambifaria; Concentration 0.05%): ++
activity (Burkholderia ambifaria; Concentration 0.1%): +++
clinical outcome (clinical, laboratory and functional indices) (Pseudomonas aeruginosa): the patients were cured

N=C(NCCCCCCNC(=N)NC(=N)Nc1ccc(Cl)cc1)NC(=N)Nc1ccc(Cl)cc1 [chlorhexidine bigluconate]
activity (Burkholderia cepacia [1]; Concentration 0,2%): +
activity (Burkholderia cepacia [1]; Concentration 0.02%): -
activity (Burkholderia cepacia [1]; Concentration 0.05%): -
activity (Burkholderia cepacia [1]; Concentration 0.1%): +
activity (Burkholderia stabilis; Concentration 0,2%): +
activity (Burkholderia stabilis; Concentration 0.02%): +
activity (Burkholderia stabilis; Concentration 0.05%): +
activity (Burkholderia stabilis; Concentration 0.1%): +
activity (Burkholderia pyrrocinia; Concentration 0,2%): +
activity (Burkholderia pyrrocinia; Concentration 0.02%): -
activity (Burkholderia pyrrocinia; Concentration 0.05%): -
activity (Burkholderia pyrrocinia; Concentration 0.1%): +
activity ([2]; Concentration 0,2%): +
activity ([2]; Concentration 0.02%): -
activity ([2]; Concentration 0.05%): -
activity ([2]; Concentration 0.1%): +
activity (Burkholderia gladioli; Concentration 0,2%): ++
activity (Burkholderia gladioli; Concentration 0.02%): +
activity (Burkholderia gladioli; Concentration 0.05%): +
activity (Burkholderia gladioli; Concentration 0.1%): +
activity (Burkholderia cenocepacia; Concentration 0,2%): +
activity (Burkholderia cenocepacia; Concentration 0.02%): +
activity (Burkholderia cenocepacia; Concentration 0.05%): +
activity (Burkholderia cenocepacia; Concentration 0.1%): +
activity (Burkholderia multivorans; Concentration 0,2%): ++
activity (Burkholderia multivorans; Concentration 0.02%): +
activity (Burkholderia multivorans; Concentration 0.05%): +
activity (Burkholderia multivorans; Concentration 0.1%): ++
activity ([4]; Concentration 0,2%): +
activity ([4]; Concentration 0.02%): -
activity ([4]; Concentration 0.05%): +
activity ([4]; Concentration 0.1%): +
activity (Burkholderia anthina; Concentration 0,2%): +
activity (Burkholderia anthina; Concentration 0.02%): -
activity (Burkholderia anthina; Concentration 0.05%): -
activity (Burkholderia anthina; Concentration 0.1%): +
activity (Burkholderia dolosa; Concentration 0,2%): ++
activity (Burkholderia dolosa; Concentration 0.02%): +
activity (Burkholderia dolosa; Concentration 0.05%): +
activity (Burkholderia dolosa; Concentration 0.1%): ++
activity (Burkholderia mallei; Concentration 0,2%): +
activity (Burkholderia mallei; Concentration 0.02%): -
activity (Burkholderia mallei; Concentration 0.05%): -
activity (Burkholderia mallei; Concentration 0.1%): +
activity (Burkholderia ambifaria; Concentration 0,2%): +
activity (Burkholderia ambifaria; Concentration 0.02%): -
activity (Burkholderia ambifaria; Concentration 0.05%): -
activity (Burkholderia ambifaria; Concentration 0.1%): +

Source: EP3138561A1 (priority 2014, dated 2015)
